Assay: Hygroscopicity analysis (DVS) of the valsartan crystal forms
Format: physicochemical
Conditions: new crystal forms; result in words only; DVS comparison (Figure 11) not in text

## CCCCC(=O)N(Cc1ccc(-c2ccccc2-c2nnn[nH]2)cc1)[C@H](C(=O)O)C(C)C [晶型E, (S)-N-(1-戊酰基)-N-[[2’-(1H-四唑-5-基)[1,1’-联苯]-4-基]甲基]-L-缬氨酸]
  hygroscopicity: 吸湿性小
